Assay results: PubChem BioAssay AID330 (DTP/NCI, 2004)
Values joined by “and” are separate entries in the source; they are usually repeats but may differ in a detail not shown here. Equal values may be shown once. Inconclusive results and toxic doses are left out.

Tested on: P388 leukemia ip, CD2F1 mice, survival T/C
Assay: NCI In Vivo Anticancer Drug Screen. Data for tumor model P388 Leukemia (intraperitoneal) in CD2F1 (CDF1) mice
Settings: endpoint: median survival time, higher = longer survival
Procedure, shortened: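 Mice carrying the transplanted tumor received test compound or vehicle. Survival was recorded in each group, and the value is the treated-group measurement divided by that of the vehicle-treated control group.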

[1] = dose: 50.0 mg/kg/injection, schedule: Q01DX009 (ip), vehicle: Klucel (hydroxypropylcellulose) (HPC)
[2] = dose: 100.0 mg/kg/injection, schedule: Q01DX009 (ip), vehicle: Klucel (hydroxypropylcellulose) (HPC)
[3] = dose: 200.0 mg/kg/injection, schedule: Q01DX009 (ip), vehicle: Klucel (hydroxypropylcellulose) (HPC)
[4] = dose: 100.0 mg/kg/injection, schedule: Q04DX003 (ip), vehicle: saline with Tween-80
[5] = dose: 200.0 mg/kg/injection, schedule: Q04DX003 (ip), vehicle: saline with Tween-80
[6] = dose: 50.0 mg/kg/injection, schedule: Q01DX005 (ip), vehicle: saline with Tween-80
[7] = dose: 100.0 mg/kg/injection, schedule: Q01DX005 (ip), vehicle: saline with Tween-80
[8] = dose: 6.25 mg/kg/injection, schedule: Q01DX009 (ip), vehicle: saline
[9] = dose: 60.0 mg/kg/injection, schedule: Q01DX005 (ip), vehicle: saline with Tween-80
[10] = dose: 120.0 mg/kg/injection, schedule: Q01DX005 (ip), vehicle: saline with Tween-80
[11] = dose: 240.0 mg/kg/injection, schedule: Q01DX005 (ip), vehicle: saline with Tween-80

CC1(C)CCCC2(C)OC(=O)C=C12 (stereo not drawn)
T/C (dose: 3.12 mg/kg/injection, schedule: Q01DX005 (ip), vehicle: distilled water + Tween-80): 105 % of control
T/C (dose: 6.25 mg/kg/injection, schedule: Q01DX005 (ip), vehicle: distilled water + Tween-80): 104 % of control
T/C (dose: 12.5 mg/kg/injection, schedule: Q01DX005 (ip), vehicle: distilled water + Tween-80): 94 % of control

CSc1ccccc1P(c1ccccc1)c1ccccc1
T/C [1]: 109 % of control
T/C [2]: 115 % of control
T/C [3]: 105 % of control

NC(=S)N/N=C/c1c(-c2ccc(Cl)cc2)nc2n1CCS2
T/C (dose: 100.0 mg/kg/injection, schedule: Q01DX001 (ip), vehicle: Klucel (hydroxypropylcellulose) (HPC)): 97 % of control
T/C (dose: 200.0 mg/kg/injection, schedule: Q01DX001 (ip), vehicle: Klucel (hydroxypropylcellulose) (HPC)): 100 % of control
T/C (dose: 400.0 mg/kg/injection, schedule: Q01DX001 (ip), vehicle: Klucel (hydroxypropylcellulose) (HPC)): 97 % of control

Cc1ccc2c(c1)C(C(F)(F)F)(C(F)(F)F)OC(C(F)(F)F)(C(F)(F)F)N2
T/C (dose: 50.0 mg/kg/injection, schedule: Q04DX003 (ip), vehicle: saline with Tween-80): 104 % of control
T/C [4]: 100 % of control
T/C [5]: 108 % of control

CS(=O)(=O)c1ccc(C[N+]23CN4CN(CN(C4)C2)C3)cc1
T/C (dose: 60.0 mg/kg/injection, schedule: Q01DX005 (ip), vehicle: Klucel (hydroxypropylcellulose) (HPC)): 98 % of control
T/C (dose: 120.0 mg/kg/injection, schedule: Q01DX005 (ip), vehicle: Klucel (hydroxypropylcellulose) (HPC)): 99 % of control
T/C (dose: 240.0 mg/kg/injection, schedule: Q01DX005 (ip), vehicle: Klucel (hydroxypropylcellulose) (HPC)): 98 % of control

O=C1C(C(=Nc2cccc(Br)c2)c2ccccc2)=C(O)c2ccccc21
T/C (dose: 25.0 mg/kg/injection, schedule: Q04DX002 (ip), vehicle: saline with Tween-80): 96 % of control
T/C (dose: 50.0 mg/kg/injection, schedule: Q04DX002 (ip), vehicle: saline with Tween-80): 100 % of control
T/C (dose: 100.0 mg/kg/injection, schedule: Q04DX002 (ip), vehicle: saline with Tween-80): 99 % of control

COc1c2occc2c(NC(=O)C(Cl)Cl)c2ccc(=O)oc12
T/C (dose: 2.5 mg/kg/injection, schedule: Q04DX002 (ip), vehicle: saline with Tween-80): 101 % of control
T/C (dose: 5.0 mg/kg/injection, schedule: Q04DX002 (ip), vehicle: saline with Tween-80): 100 % of control
T/C (dose: 10.0 mg/kg/injection, schedule: Q04DX002 (ip), vehicle: saline with Tween-80): 99 % of control

CCNC(=NC)c1ccc(NC(=O)c2ccc(C(=O)Nc3ccc(C(=NC)NCC)cc3)cc2)cc1
T/C (dose: 1.5 mg/kg/injection, schedule: Q04DX003 (ip), vehicle: saline with Tween-80): 95 % of control
T/C (dose: 3.0 mg/kg/injection, schedule: Q01DX009 (ip), vehicle: saline with Tween-80): 172 % of control
T/C (dose: 3.0 mg/kg/injection, schedule: Q04DX003 (ip), vehicle: saline with Tween-80): 100 % of control
T/C (dose: 6.0 mg/kg/injection, schedule: Q04DX003 (ip), vehicle: saline with Tween-80): 109 % of control

S=c1ssc2ccccc12
T/C [4]: 100 % of control
T/C [5]: 109 % of control
T/C (dose: 400.0 mg/kg/injection, schedule: Q04DX003 (ip), vehicle: saline with Tween-80): 109 % of control

CCOP(=O)(Nc1cc2c(=O)n(C)cnc2cc1Cl)OCC
T/C [4]: 105 % of control
T/C [5]: 100 % of control

O=C1/C(=C(\Cl)c2ccccc2)Cc2ccccc21
T/C (dose: 75.0 mg/kg/injection, schedule: Q01DX001 (ip), vehicle: saline sonified): 100 % of control
T/C (dose: 150.0 mg/kg/injection, schedule: Q01DX001 (ip), vehicle: saline sonified): 95 % of control
T/C (dose: 300.0 mg/kg/injection, schedule: Q01DX001 (ip), vehicle: saline sonified): 118 % of control

COc1cc(OC)c(NC(=S)NC(C)C)cc1Cl
T/C [1]: 91 % of control
T/C [2]: 96 % of control
T/C [3]: 99 % of control

CC(C)C(NC=O)C(=O)O (stereo not drawn)
T/C (dose: 50.0 mg/kg/injection, schedule: Q01DX005 (ip), vehicle: Klucel (hydroxypropylcellulose) (HPC)): 101 % of control
T/C [6]: 91 % of control
T/C (dose: 100.0 mg/kg/injection, schedule: Q01DX005 (ip), vehicle: Klucel (hydroxypropylcellulose) (HPC)): 101 % of control
T/C [7]: 98 % of control
T/C (dose: 200.0 mg/kg/injection, schedule: Q01DX005 (ip), vehicle: Klucel (hydroxypropylcellulose) (HPC)): 95 % of control
T/C (dose: 200.0 mg/kg/injection, schedule: Q01DX005 (ip), vehicle: saline with Tween-80): 94 % of control

Cc1cc(=O)oc2cc(OC(=O)Nc3ccc(Cl)c(Cl)c3)ccc12
T/C (dose: 3.12 mg/kg/injection, schedule: Q01DX009 (ip), vehicle: saline): 101 % of control
T/C [8]: 100 % of control
T/C (dose: 12.5 mg/kg/injection, schedule: Q01DX009 (ip), vehicle: saline): 101 % of control and 90 % of control

Nc1ncnc2nc(-c3ccc(SCc4ccccc4)cc3)[nH]c12
T/C [9]: 95 % of control
T/C [10]: 94 % of control
T/C [11]: 93 % of control

CCOC(=O)c1nc(Cl)cn(O)c1=N
T/C (dose: 100.0 mg/kg/injection, schedule: Q01DX009 (ip), vehicle: saline with Tween-80): 104 % of control
T/C (dose: 200.0 mg/kg/injection, schedule: Q01DX009 (ip), vehicle: saline with Tween-80): 99 % of control
T/C (dose: 400.0 mg/kg/injection, schedule: Q01DX009 (ip), vehicle: saline with Tween-80): 93 % of control

Cc1ccnc2n[nH]nc12
T/C (dose: 100.0 mg/kg/injection, schedule: Q04DX002 (ip), vehicle: water): 109 % of control
T/C (dose: 200.0 mg/kg/injection, schedule: Q04DX002 (ip), vehicle: water): 107 % of control
T/C (dose: 400.0 mg/kg/injection, schedule: Q04DX002 (ip), vehicle: water): 103 % of control

COC(=O)CC1C2(C)CC34OC5(C)OC6(C7CC(=O)OC(c8ccoc8)C7(C)CCC6(O5)C13C)C(OC(=O)C(C)C)C4(O)C2OC(=O)C(C)C (stereo not drawn)
T/C (dose: 0.37 mg/kg/injection, schedule: Q01DX009 (ip), vehicle: Klucel (hydroxypropylcellulose) (HPC)): 109 % of control
T/C (dose: 0.75 mg/kg/injection, schedule: Q01DX009 (ip), vehicle: Klucel (hydroxypropylcellulose) (HPC)): 109 % of control
T/C (dose: 1.5 mg/kg/injection, schedule: Q01DX009 (ip), vehicle: Klucel (hydroxypropylcellulose) (HPC)): 102 % of control
T/C (dose: 3.0 mg/kg/injection, schedule: Q01DX009 (ip), vehicle: Klucel (hydroxypropylcellulose) (HPC)): 101 % of control

Nc1ccc2c(c1)C(O)c1cccc(C(=O)O)c1-2 (stereo not drawn)
T/C [9]: 96 % of control
T/C [10]: 101 % of control
T/C [11]: 94 % of control

O=C(Nc1ccccc1-c1ccccc1)C(=O)Nc1ccccc1-c1ccccc1
T/C [6]: 90 % of control
T/C [7]: 89 % of control

C[N+](C)([O-])CC1CC=CCC1C[N+](C)(C)[O-] (stereo not drawn)
T/C (dose: 25.0 mg/kg/injection, schedule: Q01DX005 (ip), vehicle: saline): 99 % of control
T/C (dose: 50.0 mg/kg/injection, schedule: Q01DX005 (ip), vehicle: saline): 106 % of control
T/C (dose: 100.0 mg/kg/injection, schedule: Q01DX005 (ip), vehicle: saline): 91 % of control

CC(=O)OCC1OC(n2cc(CBr)nn2)C(OC(C)=O)C(OC(C)=O)C1OC(C)=O (stereo not drawn)
T/C (dose: 6.25 mg/kg/injection, schedule: Q01DX009 (ip), vehicle: distilled water + Tween-80): 102 % of control and 94 % of control
T/C [8]: 93 % of control
T/C (dose: 12.5 mg/kg/injection, schedule: Q01DX009 (ip), vehicle: distilled water + Tween-80): 106 % of control and 115 % of control
T/C (dose: 25.0 mg/kg/injection, schedule: Q01DX009 (ip), vehicle: distilled water + Tween-80): 115 % of control
T/C (dose: 50.0 mg/kg/injection, schedule: Q01DX009 (ip), vehicle: distilled water + Tween-80): 118 % of control
T/C (dose: 50.0 mg/kg/injection, schedule: Q01DX009 (ip), vehicle: saline): 163 % of control
T/C (dose: 50.0 mg/kg/injection, schedule: Q04DX003 (ip), vehicle: saline): 101 % of control
T/C (dose: 100.0 mg/kg/injection, schedule: Q01DX009 (ip), vehicle: distilled water + Tween-80): 90 % of control
T/C (dose: 100.0 mg/kg/injection, schedule: Q04DX003 (ip), vehicle: saline): 99 % of control

N[C@H]1CCC[C@@H](O)C1O (stereo partly drawn)
T/C (dose: 60.0 mg/kg/injection, schedule: Q01DX005 (ip), vehicle: saline): 103 % of control
T/C (dose: 120.0 mg/kg/injection, schedule: Q01DX005 (ip), vehicle: saline): 100 % of control
T/C (dose: 240.0 mg/kg/injection, schedule: Q01DX005 (ip), vehicle: saline): 109 % of control
